{"source": "patent US20040186081A1", "about": "“Naaladase inhibitors for treating opioid tolerance” (Guilford Pharmaceuticals Inc., priority 2003, published 2004)", "data": [{"target": "NAALADase (Homo sapiens, UniProt Q04609)", "sequence (Q04609 whole entry)": "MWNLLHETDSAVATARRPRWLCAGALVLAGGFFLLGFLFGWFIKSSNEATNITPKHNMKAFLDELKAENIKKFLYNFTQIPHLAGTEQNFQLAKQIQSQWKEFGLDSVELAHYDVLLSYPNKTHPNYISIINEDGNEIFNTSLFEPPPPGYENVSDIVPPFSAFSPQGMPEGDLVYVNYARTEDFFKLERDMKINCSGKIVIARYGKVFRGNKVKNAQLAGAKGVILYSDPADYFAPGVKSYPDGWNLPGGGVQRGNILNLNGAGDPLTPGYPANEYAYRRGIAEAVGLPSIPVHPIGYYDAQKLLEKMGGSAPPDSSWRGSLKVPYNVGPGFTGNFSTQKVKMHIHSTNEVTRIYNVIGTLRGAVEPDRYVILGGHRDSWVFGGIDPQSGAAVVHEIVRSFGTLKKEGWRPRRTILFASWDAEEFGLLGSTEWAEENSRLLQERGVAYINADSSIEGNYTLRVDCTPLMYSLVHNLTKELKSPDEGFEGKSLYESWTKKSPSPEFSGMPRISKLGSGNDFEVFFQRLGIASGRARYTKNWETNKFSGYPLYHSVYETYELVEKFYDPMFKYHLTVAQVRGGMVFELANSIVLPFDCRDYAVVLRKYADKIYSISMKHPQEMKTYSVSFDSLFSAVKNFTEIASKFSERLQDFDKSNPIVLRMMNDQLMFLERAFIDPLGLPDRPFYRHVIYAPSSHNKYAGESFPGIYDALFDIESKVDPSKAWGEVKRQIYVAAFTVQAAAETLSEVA", "experiment": "In vitro inhibition of NAALADase activity", "assay_type": "biochemical", "conditions": "not given", "units": {"Ki": "nM"}, "values": [{"compound": "O=C(O)c1ccc(S(=O)(=O)c2cc(C(=O)O)ccc2C(=O)O)cc1", "note": "[2-[(4-carboxyphenyl)sulfonyl]-1,4-benzenedicarboxylic acid]", "Ki": 2370}, {"compound": "O=C(O)c1cc(CS)cc(C(=O)O)c1", "note": "[5-mercaptomethyl-1,3-benzenedicarboxylic acid]", "Ki": 6500}, {"compound": "O=C(O)c1cc(OCCS)cc(C(=O)O)c1", "note": "[5-(2-mercaptoethoxy)-1,3-benzenedicarboxylic acid]", "Ki": 14500}, {"compound": "O=C(O)c1cc(CP(=O)(O)O)cc(C(=O)O)c1", "note": "[5-phosphonomethyl-1,3-benzenedicarboxylic acid]", "Ki": 3100}, {"compound": "O=C(O)CNc1cc(C(=O)O)cc(C(=O)O)c1", "note": "[5-[(carboxymethyl)amino]-1,3-benzenedicarboxylic acid]", "Ki": 100000}, {"compound": "O=C(O)c1ccc(C(=O)O)c(S(=O)(=O)c2cc(C(=O)O)ccc2C(=O)O)c1", "note": "[2-[(2,5-dicarboxyphenyl)sulfonyl]-1,4-benzenedicarboxylic acid]", "Ki": 1870}, {"compound": "O=C(O)c1cc(CCS)cc(C(=O)O)c1", "note": "[5-(2-mercaptoethyl)-1,3-benzenedicarboxylic acid]", "Ki": 5100}]}, {"target": "NAALADase (Homo sapiens, UniProt Q04609)", "experiment": "In vitro inhibition of NAALADase activity", "assay_type": "biochemical", "conditions": "read-out: IC50", "units": {"IC50": "nM"}, "values": [{"compound": "O=C(O)CCC(CCCSCC(=O)NO)C(=O)O", "note": "(stereo not shown) [2-(3-Hydroxycarbamoyl-methylsulfanylpropyl)-pentanedioic acid]", "IC50": 3000}, {"compound": "Cc1ccc(C(=O)c2ccccc2C(=O)NO)cc1", "note": "[N-Hydroxy-2-(4-methyl-benzoyl)-benzamide]", "IC50": "≥ 100000"}, {"compound": "O=C(NCc1ccccc1)c1cccc(CC(CCCS)C(=O)O)c1", "note": "(stereo not drawn) [alpha-(3-mercaptopropyl)-3-[[(phenylmethyl)amino]carbonyl]-benzenepropanoic acid]", "IC50": 1130}, {"compound": "CC(C)(C)c1cc(CC(CCSCC(=O)NO)C(=O)O)cc(C(=O)O)c1", "note": "(stereo not shown) [3-tert-Butyl-5-(2-carboxy-4-hydroxycarbamoylmethyl-sulfanylbutyl)-benzoic acid]", "IC50": 1060}, {"compound": "O=C(COc1cccc(-c2cccc(C(=O)O)c2)c1C(=O)O)NO", "note": "[3-Hydroxycarbamoylmethoxy-biphenyl-2,3′-dicarboxylic acid]", "IC50": 27600}, {"compound": "CS(=O)(=O)c1ccc(CC(CCCS)C(=O)O)cc1", "note": "(stereo not drawn) [alpha-(3-mercaptopropyl)-4-(methylsulfonyl)-benzenepropanoic acid]", "IC50": 211}, {"compound": "O=C(O)c1ccc(CNC(=O)c2cc(C(=O)O)cc(C(=O)NO)c2)cc1", "IC50": 2780}, {"compound": "CC(C)(C)c1cc(CC(C(=O)O)C(=O)NO)cc(C(=O)O)c1", "note": "(stereo not shown) [3-tert-Butyl-5-(2-carboxy-2-hydroxycarbamoyl-ethyl)-benzoic acid]", "IC50": 11900}, {"compound": "O=C(O)c1cc(O)ccc1CCS", "note": "[5-hydroxy-2-(2-mercaptoethyl)-benzoic acid]", "IC50": 9170}, {"compound": "O=C(O)c1cccc(CS)c1", "note": "[3-(mercaptomethyl)-benzoic acid]", "IC50": 3780}, {"compound": "CC(S)CCC(Cc1cc(C(=O)O)cc(C(C)(C)C)c1)C(=O)O", "note": "(stereo not drawn) [3-carboxy-5-(1,1-dimethylethyl)-alpha-(3-mercaptobutyl)-benzenepropanoic acid]", "IC50": 1}, {"compound": "O=C(O)c1ccc(Cl)c(CC(CCCS)C(=O)O)c1", "note": "(stereo not drawn) [5-carboxy-2-chloro-alpha-(3-mercaptopropyl)-benzenepropanoic acid]", "IC50": 2.09}, {"compound": "CC(S)CCC(Cc1cccc(C(=O)O)c1)C(=O)O", "note": "(stereo not drawn) [3-carboxy-alpha-(3-mercaptobutyl)-benzenepropanoic acid]", "IC50": 30}, {"compound": "O=C(CSCCCC(Cc1cccc(-c2cccc(C(=O)O)c2)c1)C(=O)O)NO", "note": "(stereo not shown) [3′-(2-Carboxy-5-hydroxycarbamoylmethylsulfanyl-pentyl)-biphenyl-3-carboxylic acid]", "IC50": 23500}, {"compound": "O=C(O)c1cccc(CC(C(=O)O)C(=O)NO)c1", "note": "(stereo not shown) [3-(2-Carboxy-2-hydroxycarbamoyl-ethyl)-benzoic acid]", "IC50": 4530}, {"compound": "COC(=O)c1cccc(CC(C(=O)O)C(=O)NO)c1", "note": "(stereo not shown) [3-(2-Carboxy-2-hydroxycarbamoyl-ethyl)-benzoic acid methyl ester]", "IC50": "≥ 100000"}, {"compound": "O=C(O)c1ccc(CC(CCCS)C(=O)O)cc1", "note": "(stereo not drawn) [4-carboxy-alpha-(3-mercaptopropyl)-benzenepropanoic acid]", "IC50": 59}, {"compound": "O=C(O)c1c(F)c(F)c(CC(CCCS)C(=O)O)c(F)c1F", "note": "(stereo not drawn) [4-carboxy-2,3,5,6-tetrafluoro-alpha-(3-mercaptopropyl)-benzenepropanoic acid]", "IC50": 660}, {"compound": "O=C(NO)c1ccc(OCc2ccccc2)c(C(=O)O)c1", "note": "[6-Benzyloxy-N-hydroxy-isophthalamic acid]", "IC50": "≥ 100000"}, {"compound": "O=C(O)c1cc(CC(CCCS)C(=O)O)ccc1Cl", "note": "(stereo not drawn) [3-carboxy-4-chloro-alpha-(3-mercaptopropyl)-benzenepropanoic acid]", "IC50": 175}, {"compound": "O=C(O)c1cccc(SC(CCCS)C(=O)O)c1", "note": "(stereo not shown) [3-[1-carboxy-4-mercaptobutyl)thio]-benzoic acid]", "IC50": 24}, {"compound": "N#Cc1ccccc1-c1ccc(CC(CCCS)C(=O)O)cc1", "note": "(stereo not drawn) [4-(2-cyanophenyl)-alpha-(3-mercaptopropyl)-benzenepropanoic acid]", "IC50": 316}, {"compound": "O=C(CSCCCC(Cc1cccc(-c2ccccc2)c1)C(=O)O)NO", "note": "(stereo not shown) [2-Biphenyl-3-ylmethyl-5-hydroxy-carbamoylmethylsulfanyl-pentanoic acid]", "IC50": 4210}, {"compound": "O=C(CCOc1cccc(-c2cccc(C(=O)O)c2)c1C(=O)O)NO", "note": "[3-(2-1-Hydroxycarbamoyl-ethoxy)-biphenyl-2,3′-dicarboxylic acid]", "IC50": 14900}, {"compound": "O=C(O)c1cc(CC(CCCS)C(=O)O)cc(Oc2ccccc2)c1", "note": "(stereo not drawn) [3-carboxy-alpha-(3-mercaptopropyl)-5-phenoxy-benzenepropanoic acid]", "IC50": 5}, {"compound": "CCC(SCC(Cc1cccc(C(=O)O)c1)C(=O)O)C(=O)NO", "note": "(stereo not shown) [3-[2-Carboxy-3-(1-hydroxycarbamoyl-propylsulfanyl)-propyl]-benzoic acid]", "IC50": 41500}, {"compound": "O=C(O)c1cccc(CC(CNO)C(=O)O)c1", "note": "(stereo not shown) [3-(2-Carboxy-3-hydroxyamino-propyl)-benzoic acid]", "IC50": 44000}, {"compound": "COc1cc(CC(CCCS)C(=O)O)cc(C(=O)O)c1", "note": "(stereo not drawn) [3-carboxy-alpha-(3-mercaptopropyl)-5-methoxy-benzenepropanoic acid]", "IC50": 13}, {"compound": "CC(C)(C)c1cc(CC(CCCS)C(=O)O)cc(C(=O)O)c1", "note": "(stereo not drawn) [3-carboxy-5-(1,1-dimethylethyl)-alpha-(3-mercaptopropyl)-benzenepropanoic acid]", "IC50": 0.05}, {"compound": "O=C(CSCCCC(Cc1cc(C(=O)O)cc(-c2ccccc2)c1)C(=O)O)NO", "note": "(stereo not shown) [5-(2-Carboxy-5-hydroxycarbamoylmethyl-sulfanylpentyl)-biphenyl-3-carboxylic acid]", "IC50": 1690}, {"compound": "O=C(O)CNC(=O)c1cccc(CC(CCCS)C(=O)O)c1", "note": "(stereo not drawn) [3-[[(carboxymethyl)amino]carbonyl]-alpha-(3-mercaptopropyl)-benzenepropanoic acid]", "IC50": 286}, {"compound": "O=C(O)c1ccc(F)c(CC(CCCS)C(=O)O)c1", "note": "(stereo not drawn) [5-carboxy-2-fluoro-alpha-(3-mercaptopropyl)-benzenepropanoic acid]", "IC50": 6.33}, {"compound": "CCC(SCCCC(Cc1cccc(C(=O)O)c1)C(=O)O)C(=O)NO", "note": "(stereo not shown) [3-[2-Carboxy-5-(1-hydroxycarbamoyl-propylsulfanyl)-pentyl]-benzoic acid]", "IC50": 3290}, {"compound": "O=C(NO)c1ccc(Oc2ccc(F)cc2)c([N+](=O)[O-])c1", "note": "[4-(4-Fluoro-phenoxy)-N-hydroxy-3-nitro-benzamide]", "IC50": "≥ 100000"}, {"compound": "O=C(CSCCCC(Cc1cc(Oc2ccccc2)cc(C(=O)O)c1)C(=O)O)NO", "note": "(stereo not shown) [3-(2-Carboxy-5-hydroxycarbamoylmethyl-sulfanylpentyl)-5-phenoxy-benzoic acid]", "IC50": 3250}, {"compound": "O=C(O)c1ccc(Br)c(CS)c1", "note": "[4-bromo-3-(mercaptomethyl)-benzoic acid]", "IC50": 3200}, {"compound": "CCC(SCCC(Cc1cc(C(=O)O)cc(C(C)(C)C)c1)C(=O)O)C(=O)NO", "note": "(stereo not shown) [3-tert-Butyl-5-[2-carboxy-4-(1-hydroxycarbamoyl-propylsulfanyl)-butyl]-benzoic acid]", "IC50": 16000}, {"compound": "O=C(O)c1ccc(CC(CCCS)C(=O)O)c2ccccc12", "note": "(stereo not drawn) [4-carboxy-alpha-(3-mercaptopropyl)-1-naphthalenepropanoic acid]", "IC50": 316}, {"compound": "O=C(O)C(CCCS)Cc1c(F)c(F)c(F)c(F)c1F", "note": "(stereo not drawn) [2,3,4,5,6-pentafluoro-alpha-(3-mercaptopropyl)-benzenepropanoic acid]", "IC50": 1000}, {"compound": "CC(C)(C)c1cc(CC(CCC(=O)NO)C(=O)O)cc(C(=O)O)c1", "note": "(stereo not shown) [3-tert-Butyl-5-(2-carboxy-4-hydroxycarbamoyl-butyl)-benzoic acid]", "IC50": 0.2}, {"compound": "O=C(O)Cc1ccc(CC(CCCS)C(=O)O)cc1", "note": "(stereo not drawn) [4-(carboxymethyl)-alpha-(3-mercaptopropyl)-benzenepropanoic acid]", "IC50": 809}, {"compound": "O=C(O)c1ccccc1Oc1ccc(CC(CCCS)C(=O)O)cc1", "note": "(stereo not drawn) [4-(2-carboxyphenoxy)-alpha-(3-mercaptopropyl)-benzenepropanoic acid]", "IC50": 3590}, {"compound": "O=C(O)c1ccccc1Oc1cccc(CC(CCCS)C(=O)O)c1", "note": "(stereo not drawn) [3-(2-carboxyphenoxy)-alpha-(3-mercaptopropyl)-benzenepropanoic acid]", "IC50": 49}, {"compound": "COC(=O)c1cccc(-c2cccc(OCCC(=O)NO)c2C(=O)OC)c1", "note": "[3-(2-Hydroxycarbamoyl-ethoxy)-biphenyl-2,3′-dicarboxylic acid dimethyl ester]", "IC50": "≥ 100000"}, {"compound": "COc1ccc(OC)c(CC(CCCS)C(=O)O)c1", "note": "(stereo not drawn) [alpha-(3-mercaptopropyl)-2,5-dimethoxy-benzenepropanoic acid]", "IC50": 566}, {"compound": "O=C(O)c1cccc(-c2cccc(CC(CCCS)C(=O)O)c2)c1", "note": "(stereo not shown) [3′-(2-carboxy-5-mercaptopentyl)-[1,1′-biphenyl]-3-carboxylic acid]", "IC50": 1.83}, {"compound": "O=C(O)c1cc(CC(CCCS)C(=O)O)ccc1-c1ccccc1", "note": "(stereo not shown) [4-(2-carboxy-5-mercaptopentyl)-[1,1′-biphenyl]-2-carboxylic acid]", "IC50": 18}, {"compound": "O=C(CSCCCC(Cc1cccc(C(=O)O)c1)C(=O)O)NO", "note": "(stereo not shown) [3-(2-Carboxy-5-hydroxycarbamoylmethyl-sulfanyl-pentyl)-benzoic acid]", "IC50": 394}, {"compound": "O=C(O)c1ccccc1CC(CCCS)C(=O)O", "note": "(stereo not drawn) [2-carboxy-alpha-(3-mercaptopropyl)-benzenepropanoic acid]", "IC50": 1700}, {"compound": "COc1ccc(C(=O)O)cc1OC(CCCS)C(=O)O", "note": "(stereo not shown) [3-(1-carboxy-4-mercaptobutoxy)-4-methoxy-benzoic acid]", "IC50": 287}, {"compound": "O=C(O)c1cccc(CC(CCCS)C(=O)O)c1", "note": "(single isomer, unassigned; (-)) [(−)-3-carboxy-alpha-(3-mercaptopropyl)-benzenepropanoic acid]", "IC50": 33.3}]}]}
